Seven compounds from paper PMC7578061, “Potent inhibition of tumour cell proliferation and immunoregulatory function by mitochondria-targeted atovaquone” (Scientific Reports, 2020) can be followed below.

Each structure is given as a SMILES string.

Experiment [1] relates to CD4+ T cells from SMARTA triple reporter mice. Put plainly: In vitro differentiation of CD4+ T regulatory cells, flow cytometry. It counts as cell-based, mouse. As to conditions: six days of culture; for Treg differentiation and/or survival: up to 60 µM; for Foxp3+ Treg differentiation and/or survival: varying concentrations; for Teff cell IFNγ production: dose-dependent. The source says:
Recent reports indicate that selective targeting and inhibiting of mitochondrial complex III mitigate and reverse immunosuppression by Treg cells, promoting the function of Teff cells[15],[17]. […] After six days, cells were stained to assess viability, phenotype, and function using flow cytometry.
Figure 5 In vitro differentiation of CD4^+ T regulatory cells under varying concentrations of Mito-ATOs and controls. After six days of culture, cells were stained for flow cytometry analysis. (left) Live/dead staining to assess the percentage of live CD4 + T cells within the lymphocyte gate. (middle) Teff cell function is shown as the frequency of IFNγ-YFP positive cells within the live CD4^+ T cells. (right) The percentage of Treg cells is shown as the frequency of FoxP3^+CD25^+ cells within the live CD4^+ T cells. […] I assigned them to Mito10-ATO from the label under the bar charts above. / Panel A contour plots: no measure is printed with the gate percentages. Only the axes CD25 and FoxP3 are printed.
To differentiate CD4^+ T cells into a T regulatory cell phenotype, splenocytes from SMARTA triple-reporter mice were processed and the red blood cell lysed using an ACK (ammonium-chloride-potassium) lysis buffer. The cells were then activated with 1 μg/mL GP61–80 peptide (GenScript, Piscataway, NJ) and 5 ng/mL TGF-β1 (Shenandoah Biotechnology, Inc., Warwick, PA). […] Cells were cultured for six days and split once cells reached confluency; cells were replenished with IL-2 and compound accordingly. After six days in culture, cells were stained to assess the viability and phenotypic analysis via flow cytometry. LIVE/DEAD fixable violet or aqua dead cell stain (Invitrogen, Carlsbad, CA) was used to assess cell viability. The following antibodies were used for flow cytometry staining: PercP anti-mouse CD4 (clone: GK1.5; BioLegend, San Diego, CA), APC/Cy7 anti-mouse CD25 (clone: PC61; BioLegend), and PE anti-mouse FOXP3 (clone: FJK-16S; eBioscience, San Diego, CA). Flow cytometry data were acquired using a BD LSRII (BD Biosciences, CA) flow cytometer and analysed using FlowJo (Treestar, Inc., Ashland, OR).
(In general: Flow cytometry measures light scatter and fluorescence of single cells or particles in a stream.)

Another experiment deals with MiaPaCa-2 cells. Put plainly: IncuCyte cell proliferation (cell confluence), MiaPaCa-2. It counts as cell-based, human. As to conditions: for Antiproliferative effect compared with corresponding Mito-ATO analogs: MiaPaCa-2 cells, Figure S3; for IC50: Homo sapiens, MIA PaCa-2, MiaPaCa-2 cells, confluence as control groups reach 98% confluency, read-out: IC50, inhibition of cell proliferation (cell confluence). How it is done:
(§1) The following cell lines were obtained from the American Type Culture Collection (Manassas, VA), where they were regularly authenticated: MiaPaCa-2 (ATCC#CRL-1420, human pancreatic cancer), MDA-MB-231 (ATCC#HTB-26, human breast cancer), A549 (ATCC#CCL-185, human lung cancer), LLC (ATCC#CLR-1642, mouse lung cancer). LKR13 mouse lung cancer cells were a gift from Dr. Jonathan M. Kurie (MD Anderson Cancer Center, Houston, TX)[30]. All cell lines were grown at 37 °C in 5% CO2. MiaPaCa-2 and MDA-MB-231 cells were maintained in DMEM medium (Thermo Fisher Scientific, #11965) supplemented with 10% foetal bovine serum. A549, LLC, and LKR13 cells were maintained in RPMI 1640 medium (Thermo Fisher Scientific, #11875), supplemented with 10% foetal bovine serum. All cells were stored in liquid nitrogen and used within 20 passages after thawing.
The IncuCyte Live-Cell Imaging system (IncuCyte Essen Bioscience Inc., Ann Arbor, MI) was used to monitor cell proliferation[11]–[13]. As shown in previous publications[11],[12], this imaging system is probe-free and noninvasive, and enables continuous monitoring of cell confluence over several days. The increase in the percentage of cell confluence was used as a surrogate marker of cell proliferation. In a 96-well plate, cells were plated at 1,000 cells per well in triplicates and left to adhere overnight.

Experiment [2] addresses T1, mitochondrial complex III (Homo sapiens, UniProt P00156+P47985). The experiment can be described thus: Seahorse complex III-driven OCR in permeabilized MiaPaCa-2 cells. It counts as cell-based. More on the design: carried out on acutely permeabilized cells in the presence of different mitochondrial substrates; endogenous in cells; host or cells: MiaPaCa-2 (A7). As to conditions: for Inhibition of complex III-induced oxygen consumption: MiaPaCa-2 cells, 24 h; for IC50: MiaPaCa-2 cells treated 24 h, duroquinol, read-out: Complex III IC50 (AA-inhibitable OCR). Here is the method: The mitochondrial complex activities were assessed by measuring the oxygen consumption rate (OCR) using the Seahorse technique[6],[11]–[14]. MiaPaCa-2 cells were treated separately with Mito-ATO analogs at different concentrations for 24 h and OCR was measured.
Figure 2 Effects of Mito-ATO analogs on the oxygen consumption induced by mitochondrial complexes I and III. […] MiaPaCa-2 cells were treated with Mito-ATO for 24 h. Relative complex I (1.5 mM malate, 10 mM pyruvate, 10 mM ADP)-driven OCR (left) and relative complex III (0.5 mM duroquinol, 10 mM ADP)-driven OCR (right) were monitored by XF-96 analyser. Either Rot (complex I inhibitor) or antimycin A (AA, complex III inhibitor) was acutely added and OCR assayed immediately. […] Dashed lines represent the fitting curves used for determination of the IC50 values. (n.a., not applicable).
(§2) Mitochondrial bioenergetic function was measured in real time using the Seahorse XF 96 Extracellular Flux Analyzer (Agilent, North Billerica, MA)[11]–[13],[22]. The OCR-based assessment of mitochondrial complex activities was carried out on acutely permeabilized cells in the presence of different mitochondrial substrates, i.e., pyruvate/malate, for complex I and duroquinol for complex III[11],[14],[31],[32]. Rot, malonate, and antimycin A (Sigma-Aldrich, St. Louis, MO) were used as specific inhibitors of mitochondrial complexes I, II, and III, respectively. Briefly, cells that were intact after treatments were immediately permeabilized using the Seahorse XF Plasma Membrane Permeabilizer (Agilent). The mitochondrial complex I-driven OCR was assayed in mannitol and sucrose buffer[31] containing 10 mM pyruvate and 1.5 mM malate (substrates for complex I) and 10 mM malonate (which inhibits complex II activities). The mitochondrial complex III-driven OCR was assayed in mannitol and sucrose buffer containing 0.5 mM duroquinol (substrate for complex III) and 1 µM Rot and 10 mM malonate (which inhibit both complex I and II activities). The mitochondrial complex-dependent oxygen consumption (calculated as Rot- or antimycin A-inhibitable OCR equals basal OCR less OCR after Rot or antimycin A injection) was plotted against concentrations to determine the IC50 values.

Experiment [3] has as its system LLC mouse lung cancer cells. Put plainly: IncuCyte cell proliferation (cell confluence), LLC. The following applies: Lewis lung carcinoma, read-out: IC50, inhibition of cell proliferation (cell confluence). Type of experiment: cell-based.
Source text: (§3) Previous reports provide evidence for enhanced uptake of several mitochondria-targeted cationic agents into cancer cells as compared with non-transformed control cells[11]–[14].
as §1
(§4) The IncuCyte Live-Cell Imaging system (IncuCyte Essen Bioscience Inc., Ann Arbor, MI) was used to monitor cell proliferation[11]–[13]. As shown in previous publications[11],[12], this imaging system is probe-free and noninvasive, and enables continuous monitoring of cell confluence over several days. […]

In experiment [4] the test system is A549 human lung cancer cells. The experiment can be described thus: IncuCyte cell proliferation (cell confluence), A549. Type of experiment: cell-based. The following applies: read-out: IC50, inhibition of cell proliferation (cell confluence).
Source text: as §3, §1, §4

Experiment [5] relates to MDA-MB-231 human breast cancer cells. Put plainly: IncuCyte cell proliferation (cell confluence), MDA-MB-231. It counts as cell-based. As to conditions: MDA-MB-231 cells, read-out: IC50, inhibition of cell proliferation (cell confluence).
Source text: as §3, §1, §4

The subject of experiment [6] is LKR13 mouse lung cancer cells. Put plainly: IncuCyte cell proliferation (cell confluence), LKR13. It counts as cell-based. The following applies: read-out: IC50, inhibition of cell proliferation (cell confluence).
Source text: as §3, §1, §4

Experiment [7] addresses T2, mitochondrial complex III (Mus musculus, UniProt P00158+Q9CR68).
T2 construct: carried out on acutely permeabilized cells in the presence of different mitochondrial substrates; endogenous in cells; host or cells: LLC (A11); LKR13 (A13)
The experiment can be described thus: Seahorse complex III-driven OCR in LLC cells. It counts as cell-based. How it is done: (§5) Dashed lines represent the fitting curves used for determination of the IC50 values.
as §2, with “The mitochondrial complex III-driven OCR was assayed in mannitol and sucrose buffer containing 0.5 mM duroquinol (substrate for complex III) and 1 µM Rot and 10 mM malonate (which inhibit both complex I and II activities).” left out

Experiment [8] deals with T2, mitochondrial complex III. The experiment can be described thus: Seahorse complex III-driven OCR in LKR13 cells. Type of experiment: cell-based. How it is done: as §5
as §2, with “The mitochondrial complex III-driven OCR was assayed in mannitol and sucrose buffer containing 0.5 mM duroquinol (substrate for complex III) and 1 µM Rot and 10 mM malonate (which inhibit both complex I and II activities).” left out

Experiment [9] addresses T1, mitochondrial complex III. The experiment can be described thus: Seahorse complex III-driven OCR in A549 cells. Type of experiment: cell-based. Details: carried out on acutely permeabilized cells in the presence of different mitochondrial substrates; endogenous in cells; host or cells: A549 (A9). Here is the method: as §5
as §2, with “The mitochondrial complex III-driven OCR was assayed in mannitol and sucrose buffer containing 0.5 mM duroquinol (substrate for complex III) and 1 µM Rot and 10 mM malonate (which inhibit both complex I and II activities).” left out

`CCCCCCCCCCOC1=C([C@H]2CC[C@H](c3ccc(Cl)cc3)CC2)C(=O)c2ccccc2C1=O` [Decyl-ATO]: the “Treg differentiation and/or survival” value in [1] was “did not inhibit”. The “Antiproliferative effect compared with corresponding Mito-ATO analogs” value in the experiment with MiaPaCa-2 cells is “much less effective”.

In the case of `O=C1C(OCCCCCCCCCCCCCCCC[P+](c2ccccc2)(c2ccccc2)c2ccccc2)=C([C@H]2CC[C@H](c3ccc(Cl)cc3)CC2)C(=O)c2ccccc21` [Mito16-ATO], the “Inhibition of complex III-induced oxygen consumption” value in experiment [2] is listed as “did not inhibit”. In the experiment on MiaPaCa-2 cells, the IC50 stood at 3000 nM.

Regarding `O=C1C(OCCCCCCCCCCCC[P+](c2ccccc2)(c2ccccc2)c2ccccc2)=C([C@H]2CC[C@H](c3ccc(Cl)cc3)CC2)C(=O)c2ccccc21` [Mito12-ATO], the “Foxp3+ Treg differentiation and/or survival” value in experiment [1] is given as “did not appreciably inhibit”. Moreover, the “Inhibition of complex III-induced oxygen consumption” value in experiment [2] is “did not inhibit”.

`O=C1C(OCCCC[P+](c2ccccc2)(c2ccccc2)c2ccccc2)=C([C@H]2CC[C@H](c3ccc(Cl)cc3)CC2)C(=O)c2ccccc21` [Mito4-ATO]: in experiment [1], the “Foxp3+ Treg differentiation and/or survival” value is “inhibited” and the “Teff cell IFNγ production” value was “promoted”. Moreover, in [2], the IC50 came out at 580 nM. Moreover, in the experiment with MiaPaCa-2 cells, the IC50 came to 180 nM.

On to `CCCCOC1=C([C@H]2CC[C@H](c3ccc(Cl)cc3)CC2)C(=O)c2ccccc2C1=O` [Butyl-ATO], for which the “Treg differentiation and/or survival” value in experiment [1] is recorded as “did not inhibit”. Also, in the experiment on MiaPaCa-2 cells, the “Antiproliferative effect compared with corresponding Mito-ATO analogs” value was “much less effective”.

For `O=C1C(O)=C([C@H]2CC[C@H](c3ccc(Cl)cc3)CC2)C(=O)c2ccccc21` [ATO, Atovaquone], the “Treg differentiation and/or survival” value in [1] is reported as “did not inhibit”. The IC50 in [3] is 13000 nM; with MiaPaCa-2 cells, 18000 nM; in [4], 16000 nM; in experiment [5], 18000 nM; in experiment [6] it was 10000 nM.

Take `O=C1C(OCCCCCCCCCC[P+](c2ccccc2)(c2ccccc2)c2ccccc2)=C([C@H]2CC[C@H](c3ccc(Cl)cc3)CC2)C(=O)c2ccccc21` [Mito10-ATO]: the IC50 in [7] stood at 500 nM; in experiment [8], 2100 nM; in experiment [2], 780 nM; in experiment [9], 1000 nM; in experiment [3] it was 460 nM; in the experiment with MiaPaCa-2 cells, 220 nM. Moreover, the figures for the IC50 in experiment [4], in experiment [5] and in experiment [6] were 140 nM, 230 nM and 500 nM, respectively. Besides, the “Foxp3+ Treg differentiation and/or survival” value in experiment [1] was “inhibited”. Moreover, the “Teff cell IFNγ production” value in experiment [1] is reported as “promoted”.
